A value given as a limit tells only on which side of the number the result lay.

Regarding `Cc1ccc(-c2cn3cc(-c4cccc(CO)c4)ccc3n2)cc1`, the melting point (commonly the temperature of the solid-liquid transition) was in the range of 171 to 173 °C.
Next, `CCOC(=O)C(O)(CC(=O)c1ccc(-n2ccnc2)cc1)C(=O)OCC`: 155 to 156 °C; `CCC1C(=O)Nc2ccc(Br)cc21` (stereo not given): 118 to 120 °C; `CCOC(=O)Cc1c(C(=O)O)c(C)c(C(=O)c2ccc(Cl)cc2)n1C`: 197 to 198 °C.
To `C=C(Nc1nc(-c2ccccc2)c(-c2nc3ccccc3c(=O)n2-c2ccc(C(C)=O)cc2)s1)c1ccco1` belongs 232 to 233 °C.
Next, `Cc1ccc2c(c1)C(=O)c1cccn1-2`: 85 °C; `COc1cc(OC)c2c(=O)c(O)c(-c3ccc(OC)c(OC)c3)oc2c1`: 192 to 194 °C.
On to `CC(=O)OC1Oc2ccc(Br)cc2C1(C)C` (stereo not given), for which the melting point lay in the range of 73 to 80 °C.
`COC(=O)CCc1nc(C(=O)OC)ccc1OC` came in with a melting point of 98 to 100 °C.
Next, `CCn1c(=O)c2[nH]c(/C=C/c3cc(C)c(OC)cc3C)nc2n(CC)c1=O`: over 280 °C.
To `CC(=O)OC1CC2(C)C(=O)CCC2C2C(C)CC3=CC(=O)CCC3C12` (stereo not given) belongs 183 °C; to `COc1ccccc1-c1cn(-c2ccccc2)nc1O`, 165 to 167 °C.
To `CS(=O)(=O)NC1CCN(c2nc(N)nc(-c3cc(Cl)ccc3Cl)n2)C1` (stereo not given) belongs 102 to 107 °C.
Compound `Cc1cc(Cc2cc(C)c(N)c(C)c2)cc(C)c1N` had a melting point of 119 to 120 °C.
Compound `O=C(O)C1=Cc2cc(Cl)cc(C#Cc3ccccc3)c2OC1C(F)(F)F` (stereo not given) showed a melting point of 190 to 192 °C.
To `CCOc1ccc(-c2ncccc2S(=O)(=O)Nc2ncc(C)nc2OC)cc1` belongs 162 to 163 °C; to `CS(=O)(=O)c1sccc1SCc1ccccc1`, 95 to 97 °C.
To `CCNC(=O)[C@@H]1C[C@]2(NC(=O)N(CCCCl)C2=O)c2cc(F)ccc2O1` belongs 95 to 97 °C.
Next, `COC(=O)c1cc(C(C)OC(C)C)c(C(F)(F)F)cc1N` (stereo not given): 87 to 90 °C; `Cc1c(OCC(F)(F)C(F)F)ccnc1CO`: 67 to 68 °C; `CC(C)(C)c1ccc(C[C@@H](NC(=O)c2cccc3c(F)cccc23)[C@@H](O)c2ccc(F)cc2)cc1` (racemic): 148 to 149 °C.
`CCCc1cc(Cn2c(=O)ccc3c(CC)nc(CC)cc32)ccc1Oc1ccccc1CC(=O)OC` returned a melting point of 91 to 92 °C.
Next, `CCCc1nn(-c2ccc(C(F)(F)F)cn2)cc1CCCOc1ccc(CC(=O)O)c(C)c1`: 134 to 135 °C; `Cc1ccc(-c2c(C)c(NC(=O)CC(C)(C)C)c(C)c3c2OCC3c2ccc(C(C)C)cc2)cc1` (stereo not given): 194 to 195 °C.
The compound `CN1CCC2(C)c3cc(O)cc(Br)c3N(C)C12` (stereo not given) had a melting point of 175 to 177 °C.
Next, `CCCC(=O)c1cnc2c(NCCCN3CCOCC3)cccc2c1Nc1ccccc1C`: 110 to 111 °C; `O=c1c2sccc2nc(CNc2ccccc2F)n1-c1ccccc1Cl`: 175 to 176 °C; `NC1(C(=O)c2ccccc2)CCSC1` (stereo not given): 147 to 149 °C.
To `O=C(NCCc1ccccc1)c1ccc(OC(F)(F)F)cc1` belongs 143 to 144 °C; to `O=C(O)C1=NC(c2ccc(Cl)cc2Cl)N(c2ccc(Cl)cc2)C1` (stereo not given), 150 to 151 °C.
To `COc1cc(OC)nc(Oc2cccnc2C=O)n1` belongs 76 °C.
Compound `N#Cc1ccc(-c2ccccc2F)c(F)c1` displayed a melting point of 78 to 79 °C.
To `Cc1cnc(Cl)c(C(=O)N(C)C)c1` belongs 117 to 119 °C; to `CN(CC#N)Cc1nc(-c2cc(C(C)(C)C)c(O)c(C(C)(C)C)c2)cs1`, 150 to 156 °C; to `COc1ccccc1CNc1ccc2cc(Nc3nnc(C(F)(F)F)o3)ccc2n1`, 198 °C.
To `CN(c1ccc(Cl)nc1)S(C)(=O)=O` belongs 87 to 90 °C.
As for `Cc1ccc(-c2ccc(C(=O)c3ccc(Cl)cc3Cl)cc2)cc1`, the melting point was in the range of 184 to 185 °C.
To `Cc1sc2ncc(C(=O)CC(O)c3ccccc3)n2c1C` (stereo not given) belongs 113 °C; to `COc1cc2c(cc1OC)CCCC(C(=O)N1CCN(Cc3cc(OC)c(OC)c(OC)c3)CC1CCCO)=C2` (stereo not given), 144 to 145 °C; to `CC(C)(C)C(=O)Oc1ccc(N=Nc2ccc(OC(=O)C(C)(C)C)cc2)cc1`, 185 to 188 °C.
Next, `C#CCNC(=O)C(C)(COc1ccc(OCC)cc1)NS(=O)(=O)Cc1ccccc1` (stereo not given): 155 to 156 °C; `CCS(=O)(=O)c1cc2c(cc1OC)CCn1c3c(c(-c4cccs4)c1-2)CCCCN(C(C)(C)C)C3=O`: 223 to 224 °C; `O=C(Cl)C1CCN(c2cc(-c3ccccc3)nc3ccc(F)cc23)CC1`: 243 to 245 °C.
To `CCn1nc2c(N)nc3ccccc3c2c1CCCCO` belongs 159 to 160 °C; to `O=C1N(Cc2c[nH]c3ccccc23)CCCC12CCN(c1cnc3ccccc3n1)CC2`, 109 to 111 °C.
In turn, `CCC1Sc2cc(-c3cccc([N+](=O)[O-])c3)ccc2NC1=O` (stereo not given) came in with a melting point of 180 °C.
To `CSc1sc(C(N)=O)c2c1-c1nc(C)sc1CC2` belongs 269 to 270 °C; to `Nc1cc(NS(=O)(=O)CCl)ccc1F`, 128 to 129 °C; to `CCOC(=O)C[C@@H]1CCCC[C@H]1n1nc(-c2c(-c3ccccc3)nn3ccccc23)ccc1=O` (relative stereo), 151 to 152 °C.
Turning to `CC(C)(c1ccc2ncccc2c1)n1nnc2ccc(-c3cn[nH]c3)nc21`, the melting point was in the range of 218 to 220 °C.
Next, `Cn1cncc1C(O)(c1ccc([N+](=O)[O-])cc1)c1ccc2c(c1)c(-c1cccc(Cl)c1)cc(=O)n2C` (stereo not given): 230 °C.
Compound `COC(=O)c1cccc(-c2cccc(Oc3ccc(Cl)c(Cl)c3)n2)c1` had a melting point of 133 to 134 °C.
`COc1cc(-n2nc(Cl)cc2-c2ccc(S(C)(=O)=O)cc2)ccc1[N+](=O)[O-]`: the melting point fell in the range of 170 to 175 °C.
Next, `O=C1NCCN1CC#CCn1ccnc1`: 97 to 101 °C; `COCCOC(=O)C1=C(C)NC(C)=C(c2nnco2)C1c1cccc(Cl)c1Cl` (stereo not given): 190 to 192 °C; `O=C(O)c1cc(S(=O)(=O)N2CCSCC2)ccc1Br`: 195 to 198 °C.
Turning to `CC(O)Cc1cc(N)cc([N+](=O)[O-])c1N` (stereo not given), the melting point came out at 115 °C.
To `CC(C)c1nc(C(C)C)c(CN2CCOCC2)c(-c2ccc(F)cc2)c1CO` belongs 93.5 to 95.5 °C; to `CS(=O)(=O)c1ccc(C(CC2CCCCC2)C(=O)O)cc1` (stereo not given), 139 to 143 °C; to `CCOC(=O)N1Cc2sc3ncn(CCO)c(=O)c3c2C1`, 243 to 245 °C.
Next, `COc1ccc(CCCC(=O)NC(NC(=NC#N)Nc2cccnc2C)C(C)(C)C)cc1` (stereo not given): 65 to 68 °C; `O=C1c2ccccc2C(=O)N1OC1CCCC1`: 81.2 to 82.5 °C; `CSc1ccc(C=C2c3ccc(F)cc3CC2C)cc1` (stereo not given): 67 to 70 °C.
In the case of `CCOC(=O)CNC(=O)Nc1ccc(C(=O)/C=C/c2ccc(-c3cccs3)cc2)cc1`, the melting point was in the range of 209 to 212 °C.
`NS(=O)(=O)C1(c2ncc(C(F)(F)F)cc2Cl)C=CC(Cl)=CC1Cl` (stereo not given) came in with a melting point of 125 to 126 °C.
With `CCOC(=O)NC1CCN(c2ncnc3cc(OC)c(OC)cc23)CC1`, the melting point lay in the range of 179 to 181 °C.
To `Cc1ccc(Nc2nc(-c3cc(-c4ccccc4)no3)cs2)nc1` belongs 224 to 227 °C.
Next, `CCn1nccc1-c1ccc2[nH]c3c(cc(-c4ccc(Cl)cc4Cl)c(=O)n3C)c2c1`: 255 to 258 °C; `Nc1nc2c(N)cc(OC(F)(F)F)cc2s1`: 206 °C; `CC1c2cc([Si](C)(C)C)ccc2-c2ccc([Si](C)(C)C)cc21`: 107 to 108 °C.
To `OCCCOC(c1ccccc1)c1ccccc1` belongs 140 to 141 °C; to `CCC1(C)CC2(NC(=O)N(c3ccccc3)C2=O)C(C)C(C)(CC)N1` (stereo not given), 150 to 153 °C.
With `CCOC(=O)NC(=NC(=O)c1nc(Cl)c(N)nc1N)NC(=O)OCC`, the melting point amounted to 213 °C.
To `Clc1ccc(-c2cccs2)nn1` belongs 155 °C; to `CCCCCCCCCCCCCCCCCC(=O)c1ccc(O)c(C(=O)OC(C)C)c1`, 72 to 73 °C; to `NC(=O)[C@H](CO)Nc1nc(SCc2cccc(F)c2F)nc2nc(N)sc12`, 145 to 151 °C.
Consider `CCCCS(=O)(=O)c1ccc2nn(-c3cc(C(C)(C)CC(C)(C)C)cc(C(C)(C)c4ccccc4)c3O)nc2c1`, for which the melting point is 118 °C.
Take `Cc1c(Cl)cccc1S(=O)(=O)Nc1nc(C(C)(C)C)cs1`: the melting point worked out at 178 °C.
To `O=C(O)c1ccccc1Oc1ccc(C(F)(F)F)cc1NS(=O)(=O)c1ccc(Cl)cc1` belongs 164 °C.
To `COC(=O)C1NC(C(=O)OC)C(C(=O)OC)NC1C(=O)OC` (stereo not given) belongs 162 to 163 °C.
Compound `COc1cc2c(cc1OC)-c1nccc3cccc(c13)C2=O` came in with a melting point of 250 °C.
Next, `OCC(F)(F)c1ccccn1`: 58 to 60 °C; `COc1ccccc1NC=C1C(=O)N(c2ccc(C(=O)O)cc2)N=C1C`: over 300 °C; `CCOC(=O)COc1ccc(OCc2ccccc2)cc1OCc1ccccc1`: 62 to 64 °C.
To `CC1=CSC(n2ccc(OCc3ccc(C(F)(F)F)o3)cc2=O)N1C(=O)O` (stereo not given) belongs 261 to 263 °C; to `CCCCc1nc2cscc2[nH]1`, 118 °C.
For the compound `Cc1ccc2nc(C3(c4ccc(S(N)(=O)=O)cc4)C=C(C(F)(F)F)NN3)oc2c1` (stereo not given), the melting point lay in the range of 260 to 261 °C.
With `CCN(CC)Cc1ccc2c(c1)ncn2-c1cccc(-c2nccs2)c1`, the melting point stood at 152 °C.
Next, `O=C1c2cccc3cc4ccccc4c(c23)C(=O)N1CCO`: 211 °C; `Cn1nc(-c2cc(N)c(F)cc2F)c(Cl)c1C(F)(F)F`: 82 °C.
